Broadly, the IC50 is the concentration that inhibits the measured activity by half. One may read the Ki as the dissociation constant of the complex between target and ligand, obtained from inhibition or displacement.

This is an account of results in patent US20230250098A1 (priority 2021, published 2023).

SMILES strings stand for the structures. “Also recorded” adds a separate entry of the source. Like-named read-outs stand apart in the source and are kept apart here.

In one data set the target is T1, FLAG-mouse δOP (Mus musculus, UniProt P32300).
T1 construct: FLAG (N); expressed in transfected cells; host or cells: HEK cells (HEK-293), transient transfection together with pGloSensor22F
T1 sequence (P32300 whole entry): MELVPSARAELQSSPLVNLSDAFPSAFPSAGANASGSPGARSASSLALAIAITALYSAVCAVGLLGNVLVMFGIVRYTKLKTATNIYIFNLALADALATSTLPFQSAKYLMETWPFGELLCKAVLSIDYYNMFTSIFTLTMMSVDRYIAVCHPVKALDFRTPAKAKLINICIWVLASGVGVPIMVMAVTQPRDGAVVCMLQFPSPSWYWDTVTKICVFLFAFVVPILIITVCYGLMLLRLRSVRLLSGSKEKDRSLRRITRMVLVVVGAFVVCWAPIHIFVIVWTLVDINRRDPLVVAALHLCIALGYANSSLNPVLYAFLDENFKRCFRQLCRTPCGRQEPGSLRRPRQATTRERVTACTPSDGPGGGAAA
The data set is described as follows: GloSensor cAMP inhibition assay in transfected HEK cells. It counts as cell-based. The note with it: for cAMP α: efficacy normalized to positive control Leu-Enk; for IC50 / cAMP pIC50: inhibition of forskolin-induced cAMP.

In data set [1] the test system is C57Bl/6 wild-type mice. Particulars: cited from earlier work; for alcohol consumption, in words (previous reports): dose not stated; for alcohol intake, in words (previous reports): 10 mg·kg^−1.
The next data set addresses T2, FLAG-mouse κOP (Mus musculus, UniProt P33534).
T2 construct: FLAG (N); expressed in transfected cells; host or cells: HEK cells, transient transfection together with pGloSensor22F
It counts as cell-based. Particulars: for IC50: read-out: cAMP IC50.

For data set [2], the target named is T3, δOP (Homo sapiens, UniProt P41143). It counts as binding. Particulars: [3H]DPDPE, CHO membranes; for Ki: read-out: Binding Ki. Also noted: membranes isolated.
T3 sequence (P41143 whole entry): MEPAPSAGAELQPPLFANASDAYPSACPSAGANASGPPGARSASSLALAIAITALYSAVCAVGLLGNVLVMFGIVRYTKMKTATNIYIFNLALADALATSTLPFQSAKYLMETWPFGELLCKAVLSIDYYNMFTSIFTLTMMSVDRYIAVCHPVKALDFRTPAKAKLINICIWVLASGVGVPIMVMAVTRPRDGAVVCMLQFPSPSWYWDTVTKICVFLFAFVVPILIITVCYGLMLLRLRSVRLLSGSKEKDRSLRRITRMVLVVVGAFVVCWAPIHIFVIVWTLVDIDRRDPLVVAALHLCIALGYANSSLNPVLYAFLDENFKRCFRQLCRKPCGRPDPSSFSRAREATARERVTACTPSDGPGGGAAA
A further data set addresses T4, HA-mouse μOP (Mus musculus, UniProt P42866).
T4 construct: HA (N); expressed in transfected cells; host or cells: HEK cells, transient transfection together with pGloSensor22F
The data set is described as follows: GloSensor cAMP inhibition assay in transfected HEK cells. Particulars: for cAMP α: efficacy normalized to positive control DAMGO; for IC50 / cAMP pIC50: inhibition of forskolin-induced cAMP. It counts as cell-based.

The test system of data set [3] is WT mice. Particulars: 7-hydroxymitragynine dose not stated; paynantheine 10 mg·kg^−1; cited from earlier work.
Data set [4] has as its system male, WT mice. Particulars: dose not stated; cited from earlier work.
Data set [5] has as its system C57Bl/6 wild-type mice. The data set is described as follows: Two-bottle choice alcohol paradigm (drinking in the dark, 10% ethanol vs water). The format is in vivo, mouse. The note with it: systemic (i.p.) injection; modified 2-bottle choice; male C57BL/6 mice; FIG. 1.
The target of another data set is κOP (Homo sapiens, UniProt P41145). The format is binding. More on the design: membranes isolated. The note with it: for Ki: read-out: Binding Ki.
Sequence of κOP (P41145 whole entry): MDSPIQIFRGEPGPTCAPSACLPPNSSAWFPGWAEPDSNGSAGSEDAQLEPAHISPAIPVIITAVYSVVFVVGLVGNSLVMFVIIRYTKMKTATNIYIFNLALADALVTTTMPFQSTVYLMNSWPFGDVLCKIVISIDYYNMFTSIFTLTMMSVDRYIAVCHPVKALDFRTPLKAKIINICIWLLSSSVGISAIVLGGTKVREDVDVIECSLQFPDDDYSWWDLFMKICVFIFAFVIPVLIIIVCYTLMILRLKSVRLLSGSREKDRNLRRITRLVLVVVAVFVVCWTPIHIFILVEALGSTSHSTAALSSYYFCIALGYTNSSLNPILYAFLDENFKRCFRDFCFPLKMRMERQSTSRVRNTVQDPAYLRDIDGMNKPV
Data set [6] addresses T3, δOP. The format is cell-based.
For data set [7], the target named is T5, μOP (Homo sapiens, UniProt P35372). It counts as cell-based. Particulars: normalized to positive control DAMGO.
T5 sequence (P35372 whole entry): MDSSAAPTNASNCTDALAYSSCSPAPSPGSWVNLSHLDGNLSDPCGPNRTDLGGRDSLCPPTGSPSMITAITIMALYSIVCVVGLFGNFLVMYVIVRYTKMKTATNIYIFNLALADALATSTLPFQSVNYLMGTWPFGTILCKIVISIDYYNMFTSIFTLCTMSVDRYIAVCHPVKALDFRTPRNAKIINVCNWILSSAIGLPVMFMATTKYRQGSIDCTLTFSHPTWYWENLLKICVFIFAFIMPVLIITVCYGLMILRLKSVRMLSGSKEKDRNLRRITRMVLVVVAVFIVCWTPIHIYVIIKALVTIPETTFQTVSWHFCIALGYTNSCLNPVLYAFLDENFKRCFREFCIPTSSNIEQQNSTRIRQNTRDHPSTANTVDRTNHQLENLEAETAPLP
The test system of another data set is male mice. The data set is described as follows: Tail flick thermal nociception assay. The format is in vivo, mouse.
Data set [8] relates to WT mice. The data set is described as follows: Locomotor evaluation. The note with it: 10 mg·kg^−1.
Data set [9] concerns the target T5, μOP. It counts as binding. More on the design: membranes isolated. The note with it: [3H]DAMGO, CHO membranes.
For data set [10], the system named is male, WT mice. The data set is described as follows: Conditioned place preference (brief and extended). Particulars: 10 mg·kg^−1.
A further data set concerns wildtype mice. The data set is described as follows: Seizure assay (modified racine scale).
Data set [11] has as its system δOP KO mice. The data set is described as follows: Two-bottle choice alcohol paradigm in δOP KO mice. Particulars: 10 mg·kg^−1; male δOP KO mice. The format is in vivo, mouse.
In data set [12] the test system is δOP KO mice. The data set is described as follows: Seizure assay in δOP KO mice. Particulars: 30 mg·kg^−1 i.p.

T2 sequence (P33534 whole entry): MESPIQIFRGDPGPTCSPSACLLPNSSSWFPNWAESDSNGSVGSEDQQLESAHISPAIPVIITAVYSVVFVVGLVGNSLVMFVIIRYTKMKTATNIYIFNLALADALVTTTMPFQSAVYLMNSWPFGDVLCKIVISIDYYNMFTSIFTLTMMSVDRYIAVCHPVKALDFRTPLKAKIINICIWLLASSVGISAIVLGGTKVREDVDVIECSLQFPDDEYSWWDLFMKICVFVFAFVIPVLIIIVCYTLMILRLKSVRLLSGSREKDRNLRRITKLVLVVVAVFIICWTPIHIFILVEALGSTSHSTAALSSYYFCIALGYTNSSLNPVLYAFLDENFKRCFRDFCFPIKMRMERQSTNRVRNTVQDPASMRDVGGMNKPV
T4 sequence (P42866 whole entry): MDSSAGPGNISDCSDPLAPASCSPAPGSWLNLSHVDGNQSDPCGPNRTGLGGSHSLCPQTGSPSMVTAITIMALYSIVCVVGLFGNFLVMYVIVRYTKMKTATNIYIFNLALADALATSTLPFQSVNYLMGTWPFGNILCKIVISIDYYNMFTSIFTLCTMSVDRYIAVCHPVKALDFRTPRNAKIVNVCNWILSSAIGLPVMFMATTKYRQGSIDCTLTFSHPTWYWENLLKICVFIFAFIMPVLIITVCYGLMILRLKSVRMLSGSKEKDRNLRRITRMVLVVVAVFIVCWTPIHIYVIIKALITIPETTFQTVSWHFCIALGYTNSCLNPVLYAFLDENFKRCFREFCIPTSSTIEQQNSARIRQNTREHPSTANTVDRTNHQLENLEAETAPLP

Turning to `CC[C@@H]1CN2CC[C@@]3(O)C(=Nc4cccc(OC)c43)[C@@H]2C[C@@H]1/C(=C\OC)C(=O)OC` [7-OH MITRA, 7-hydroxymitragynine, reference compound], at FLAG-mouse δOP, the “cAMP α” value is on record as 80 ± 8, the IC50 stood at 960 nM and the “cAMP pIC50” value is “*5.7 ± 0.2 (8)”. In the data set with C57Bl/6 wild-type mice [1], the “alcohol consumption, in words (previous reports)” value is “decrease alcohol consumption”. On FLAG-mouse κOP, the “cAMP pIC50” value was “*6.2 ± 0.3 (9)”, the “cAMP α” value is 77 ± 5 and the half-maximal inhibitory concentration (IC50) amounted to 1040 nM. At δOP [2], the “Binding pKi” value is on record as 6.7 ± 0.1 (4) and the Ki worked out at 19 nM. For the same molecule, at HA-mouse μOP, the “cAMP α” value is 84 ± 3, half-maximal inhibition (IC50) was put at 16 nM and the “cAMP pIC50” value is 7.8±0.1. Besides, the “hyperlocomotion (previous reports)” value with WT mice [3] was “caused both CPP and hyperlocomotion”. The “conditioned place preference (previous report)” value in the data set on male, WT mice [4] is “caused both CPP and hyperlocomotion”. Also, in the data set with C57Bl/6 wild-type mice [5], the “alcohol intake, in words” value is listed as “reduce alcohol intake”. For the same molecule, on κOP, the “Binding pKi” value was 6.9 ± 0.1 (4) and the inhibition constant (Ki) stood at 14 nM. The “β-arrestin 2 pEC50” value on δOP [6] is 6.4 ± 0.3 (6). In addition, the “β-arrestin 2 α” value at δOP [6] (normalized to positive control Leu-Enk) came out at 14 ± 1.

Consider `C[C@@H](NC(=O)[C@@H](N)Cc1ccc(O)cc1)C(=O)NCC(=O)N(C)[C@@H](Cc1ccccc1)C(=O)NCCO` [DAMGO, (2S)-2-[[2-[[(2R)-2-[[(2S)-2-Amino-3-(4-hydroxyphenyl)propanoyl]amino]propanoyl]amino]acetyl]-methylamino]-N-(2-hydroxyethyl)-3-phenylpropanamide, reference compound], for which the “cAMP α” value at HA-mouse μOP worked out at 100. Moreover, the “β-arrestin 2 α” value at μOP [7] is given as 100.

Regarding `C=C[C@H]1CN2CCc3c([nH]c4cccc(OC)c34)[C@@H]2C[C@@H]1/C(=C\OC)C(=O)OC` [PAYN, paynantheine, reference compound], the “cAMP α” value on FLAG-mouse δOP is 64 ± 13; at FLAG-mouse κOP, 95 ± 5; at HA-mouse μOP, 100 ± 0. For the same molecule, the IC50 worked out at 3550 nM against FLAG-mouse δOP, 7430 nM on FLAG-mouse κOP and 4080 nM on HA-mouse μOP. Besides, the figures for the “cAMP pIC50” value at FLAG-mouse δOP, on FLAG-mouse κOP and on HA-mouse μOP were “*5.6 ± 0.2 (4)”, “*5.3 ± 0.2 (4)” and “*5.4 ± 0.1 (5)”, respectively. The “block of morphine analgesia (antagonist mode)” value in the data set on male mice (10 mg·kg^−1, then morphine 6 mg·kg^−1 s.c. 10 minutes later) is “did not produce antinociception (paired, two-tailed t-test, t=0.6193, df=9, p=0.5511) or block morphine analgesia”. In addition, the “antinociception (agonist mode)” value in the data set on male mice (10 mg·kg^−1, 30 minutes after drug) was “did not produce antinociception”. Moreover, the “alcohol intake, in words (previous reports)” value with C57Bl/6 wild-type mice [1] (listed as Paynantheine) was “decrease alcohol intake”; with C57Bl/6 wild-type mice [1] (listed as paynantheine), “significant reduction”. Also, in the data set on C57Bl/6 wild-type mice [1], the “alcohol consumption, in words (previous reports)” value was “decrease alcohol consumption”. The “ambulation / locomotor activity” value in the data set with WT mice [8] is recorded as “a trend towards decreased locomotor activity”. The entries for the “Binding pKi” value at μOP [9], on δOP [2] and on κOP were 6.3 ± 0.1 (4), 5.3 ± 0.1 (5) and 5.5 ± 0.1 (5), respectively. The figures for the Ki on μOP [9] (read-out: Binding Ki), on δOP [2] and on κOP were 52 nM, 7820 nM and 4000 nM, respectively. Further, in the data set with male, WT mice [10], the “conditioned place preference, brief paradigm” value was “induces conditioned place aversion (CPA)”. Further, in the data set with male, WT mice [10] (four conditioning sessions each for drug and vehicle), the “conditioned place preference, extended protocol” value was “does not produce place preference”. Besides, the seizure activity result was “not showing overt signs of seizure activity” in the data set on wildtype mice (10 mg·kg^−1) and “induced seizures” in the data set on wildtype mice (30 mg·kg^−1). Besides, the “ethanol consumption in δOP KO mice, in words” value in the data set with δOP KO mice [11] is recorded as “did not significantly decrease ethanol consumption; also recorded: alcohol consumption was not significantly altered”. The “hyperlocomotion (previous reports)” value in the data set on WT mice [3] is recorded as “without causing hyperlocomotion”. For the same molecule, in the data set with δOP KO mice [12], the “seizure activity in δOP KO mice” value is listed as “still present in δOP KO mice”. In the data set on C57Bl/6 wild-type mice [5], the “alcohol intake, in words” value is listed as “reduce alcohol intake”.
